According to patent US20080319000A1, “Use of 3,1IB-Cis-Dihydrotetrabenazine for the Treatment of Symptoms of Huntingtons Disease” (CAMBRIDGE LABORATORIES (IRELAND) LIMITED, priority 2005, published 2008):

Columns and labels:
[1] = molecular target: serotonin transporter protein SERT (Homo sapiens, UniProt P31645); test: Serotonin transporter SERT inhibition; type: binding
[2] = molecular target: T1, monoamine oxidase isoform A (Homo sapiens, UniProt P21397); test: Monoamine oxidase A inhibition; type: biochemical
T1 sequence (P21397 1-527): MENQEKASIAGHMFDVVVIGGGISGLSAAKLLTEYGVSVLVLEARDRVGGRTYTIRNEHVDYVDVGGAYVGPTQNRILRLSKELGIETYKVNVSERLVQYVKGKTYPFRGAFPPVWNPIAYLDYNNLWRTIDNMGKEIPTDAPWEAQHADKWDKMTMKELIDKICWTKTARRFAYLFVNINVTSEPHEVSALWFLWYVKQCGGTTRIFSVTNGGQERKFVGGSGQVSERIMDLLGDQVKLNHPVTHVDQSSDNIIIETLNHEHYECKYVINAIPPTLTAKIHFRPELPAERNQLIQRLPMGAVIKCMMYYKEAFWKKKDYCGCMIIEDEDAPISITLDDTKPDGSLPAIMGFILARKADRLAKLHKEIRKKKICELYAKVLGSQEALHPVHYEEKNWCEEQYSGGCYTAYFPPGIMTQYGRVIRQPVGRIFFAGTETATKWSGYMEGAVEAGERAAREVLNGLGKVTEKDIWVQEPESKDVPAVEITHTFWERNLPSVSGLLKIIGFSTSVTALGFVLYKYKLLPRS

Chain of serotonin transporter protein SERT (P31645 whole entry, canonical isoform): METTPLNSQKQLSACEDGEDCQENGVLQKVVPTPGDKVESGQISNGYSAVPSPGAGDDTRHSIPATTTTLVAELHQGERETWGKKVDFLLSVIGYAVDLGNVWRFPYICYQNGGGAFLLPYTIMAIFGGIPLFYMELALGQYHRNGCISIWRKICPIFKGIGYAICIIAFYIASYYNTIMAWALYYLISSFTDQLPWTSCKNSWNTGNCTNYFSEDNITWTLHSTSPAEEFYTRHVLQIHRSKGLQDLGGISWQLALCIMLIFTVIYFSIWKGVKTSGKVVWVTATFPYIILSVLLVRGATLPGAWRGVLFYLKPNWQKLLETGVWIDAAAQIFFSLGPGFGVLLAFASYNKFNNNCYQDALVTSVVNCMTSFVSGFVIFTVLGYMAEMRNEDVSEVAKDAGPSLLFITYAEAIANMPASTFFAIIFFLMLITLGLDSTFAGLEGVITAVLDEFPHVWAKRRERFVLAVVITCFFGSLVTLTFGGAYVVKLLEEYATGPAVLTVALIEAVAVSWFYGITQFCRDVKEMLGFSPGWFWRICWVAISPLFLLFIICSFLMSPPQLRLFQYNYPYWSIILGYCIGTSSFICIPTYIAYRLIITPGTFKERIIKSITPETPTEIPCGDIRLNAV

COc1cc2c(cc1OC)[C@H]1C[C@H](O)[C@@H](CC(C)C)CN1CC2 (single isomer, unassigned) [Isomer B]
inhibition of the serotonin transporter protein SERT [1]: potent inhibitors | inhibitory activity against monoamine oxidase isoform A [2]: no inhibitory activity
